According to ChEMBL document CHEMBL1201862, “PubChem BioAssay data set” (2004):
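Each compound was tested at five concentrations against cells in 96-well plates for 48 hours. GI50 is the concentration that inhibits growth by half.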 Calls of active or inactive are those of the source. Rule as the data show it: active = GI50 up to about 1.1 µM and inactive = higher.

Columns and labels:
Test in all cases: NCI tumour cell line growth inhibition, 48 h
Hs-578T = test system: Hs-578T
CAKI-1 = test system: CAKI-1
TK-10 = test system: TK-10
SF-295 = test system: SF-295
EKVX = test system: EKVX
KM12 = test system: KM12
HCT-15 = test system: HCT-15
IGROV-1 = test system: IGROV-1
OVCAR-3 = test system: OVCAR-3
OVCAR-5 = test system: OVCAR-5
MCF7 = test system: MCF7
OVCAR-8 = test system: OVCAR-8
HCC 2998 = test system: HCC 2998
A549 = test system: A549
HT-29 = test system: HT-29
BT-549 = test system: BT-549
SR = test system: SR
786-0 = test system: 786-0
SF-539 = test system: SF-539
Malme-3M = test system: Malme-3M
SN12C = test system: SN12C
PC-3 = test system: PC-3
HCT-116 = test system: HCT-116
K562 = test system: K562
MDA-MB-231 = test system: MDA-MB-231
CCRF-CEM = test system: CCRF-CEM
HL-60 = test system: HL-60
DU-145 = test system: DU-145
UACC-257 = test system: UACC-257
NCI-H460 = test system: NCI-H460
RPMI-8226 = test system: RPMI-8226
NCI-H522 = test system: NCI-H522
UACC-62 = test system: UACC-62
SK-MEL-5 = test system: SK-MEL-5
A498 = test system: A498
NCI-H23 = test system: NCI-H23
T47D = test system: T47D
UO-31 = test system: UO-31
SK-MEL-28 = test system: SK-MEL-28
NCI/ADR-RES = test system: NCI/ADR-RES
ACHN = test system: ACHN
U-251 = test system: U-251
HOP-62 = test system: HOP-62
SW-620 = test system: SW-620
MOLT-4 = test system: MOLT-4
MDA-MB-435 = test system: MDA-MB-435
NCI-H226 = test system: NCI-H226
LOX IMVI = test system: LOX IMVI
COLO 205 = test system: COLO 205
OVCAR-4 = test system: OVCAR-4
MDA-N = test system: MDA-N
SK-OV-3 = test system: SK-OV-3
SNB-75 = test system: SNB-75
M14 = test system: M14
SF-268 = test system: SF-268
SNB-19 = test system: SNB-19
RXF 393 = test system: RXF 393
SK-MEL-2 = test system: SK-MEL-2
HOP-92 = test system: HOP-92

## CC(=O)OCCCCn1cnc2c(Cl)nc(Nc3ccccc3)nc21
Hs-578T
  GI50: > 100 µM (inactive)
CAKI-1
  GI50: 18.7 µM (inactive)
TK-10
  GI50: > 100 µM (inactive)
SF-295
  GI50: > 100 µM (inactive)
EKVX
  GI50: > 100 µM (inactive)
KM12
  GI50: > 100 µM (inactive)
HCT-15
  GI50: > 100 µM
IGROV-1
  GI50: > 100 µM (inactive)
OVCAR-3
  GI50: > 100 µM (inactive)
OVCAR-5
  GI50: > 100 µM (inactive)
MCF7
  GI50: > 100 µM (inactive)
OVCAR-8
  GI50: > 100 µM (inactive)
HCC 2998
  GI50: 42.9 µM (inactive)
A549
  GI50: > 100 µM (inactive)
HT-29
  GI50: > 100 µM (inactive)
BT-549
  GI50: > 100 µM (inactive)
SR
  GI50: > 100 µM (inactive)
786-0
  GI50: > 100 µM (inactive)
SF-539
  GI50: > 100 µM (inactive)
Malme-3M
  GI50: > 100 µM (inactive)
SN12C
  GI50: > 100 µM (inactive)
PC-3
  GI50: > 100 µM (inactive)
HCT-116
  GI50: > 100 µM (inactive)
K562
  GI50: > 100 µM (inactive)
MDA-MB-231
  GI50: > 100 µM (inactive)
CCRF-CEM
  GI50: > 100 µM (inactive)
HL-60
  GI50: > 100 µM (inactive)
DU-145
  GI50: > 100 µM (inactive)
UACC-257
  GI50: > 100 µM (inactive)
NCI-H460
  GI50: > 100 µM (inactive)
RPMI-8226
  GI50: > 100 µM (inactive)
NCI-H522
  GI50: 16.5 µM (inactive)
UACC-62
  GI50: > 100 µM (inactive)
SK-MEL-5
  GI50: 65.6 µM (inactive)
A498
  GI50: > 100 µM (inactive)
NCI-H23
  GI50: 54.7 µM (inactive)
T47D
  GI50: > 100 µM (inactive)
UO-31
  GI50: > 100 µM (inactive)
SK-MEL-28
  GI50: > 100 µM (inactive)
NCI/ADR-RES
  GI50: > 100 µM (inactive)
ACHN
  GI50: > 100 µM (inactive)
U-251
  GI50: > 100 µM (inactive)
HOP-62
  GI50: > 100 µM (inactive)
SW-620
  GI50: > 100 µM (inactive)
MOLT-4
  GI50: > 100 µM (inactive)
MDA-MB-435
  GI50: > 100 µM (inactive)
NCI-H226
  GI50: > 100 µM (inactive)
LOX IMVI
  GI50: > 100 µM (inactive)
COLO 205
  GI50: > 100 µM (inactive)
OVCAR-4
  GI50: > 100 µM (inactive)
MDA-N
  GI50: > 100 µM (inactive)

## Nc1ccc(S(=O)(=O)Nc2nc3ccccc3nc2Nc2ccc(S(N)(=O)=O)cc2)cc1
Hs-578T
  GI50: 23 µM (inactive)
CAKI-1
  GI50: 68.7 µM (inactive)
SK-OV-3
  GI50: 29.8 µM (inactive)
SNB-75
  GI50: 13.6 µM (inactive)
TK-10
  GI50: 44.6 µM (inactive)
SF-295
  GI50: 26.9 µM (inactive)
EKVX
  GI50: 75.7 µM (inactive)
KM12
  GI50: 33 µM (inactive)
HCT-15
  GI50: 37.7 µM
IGROV-1
  GI50: 21.8 µM (inactive)
OVCAR-3
  GI50: 32.4 µM (inactive)
OVCAR-5
  GI50: > 100 µM (inactive)
MCF7
  GI50: 57.8 µM (inactive)
OVCAR-8
  GI50: 45.4 µM (inactive)
M14
  GI50: 36.3 µM (inactive)
A549
  GI50: 47.1 µM (inactive)
HT-29
  GI50: 57.8 µM (inactive)
BT-549
  GI50: 20.2 µM (inactive)
SF-268
  GI50: 17.5 µM (inactive)
SR
  GI50: 37 µM (inactive)
786-0
  GI50: 58.3 µM (inactive)
SF-539
  GI50: 31.8 µM (inactive)
Malme-3M
  GI50: 22.8 µM (inactive)
SN12C
  GI50: 34.6 µM (inactive)
PC-3
  GI50: 34.9 µM (inactive)
HCT-116
  GI50: 38.5 µM (inactive)
K562
  GI50: 69.8 µM (inactive)
MDA-MB-231
  GI50: 53.8 µM (inactive)
CCRF-CEM
  GI50: 48.8 µM (inactive)
HL-60
  GI50: 25.1 µM (inactive)
DU-145
  GI50: 44.9 µM (inactive)
UACC-257
  GI50: 46 µM (inactive)
NCI-H460
  GI50: > 100 µM (inactive)
RPMI-8226
  GI50: 33.7 µM (inactive)
NCI-H522
  GI50: 23.3 µM (inactive)
UACC-62
  GI50: 30.8 µM (inactive)
SK-MEL-5
  GI50: 49.8 µM (inactive)
NCI-H23
  GI50: 20.5 µM (inactive)
T47D
  GI50: 40.7 µM (inactive)
UO-31
  GI50: 18.2 µM (inactive)
SNB-19
  GI50: 25.2 µM (inactive)
RXF 393
  GI50: 20.8 µM (inactive)
SK-MEL-28
  GI50: 30.2 µM (inactive)
NCI/ADR-RES
  GI50: 45.9 µM (inactive)
ACHN
  GI50: 42.7 µM (inactive)
SK-MEL-2
  GI50: 19.1 µM (inactive)
U-251
  GI50: 27.7 µM (inactive)
HOP-62
  GI50: 29.2 µM (inactive)
SW-620
  GI50: 36.9 µM (inactive)
MOLT-4
  GI50: 15.4 µM (inactive)
MDA-MB-435
  GI50: 49.3 µM (inactive)
NCI-H226
  GI50: 56.4 µM (inactive)
LOX IMVI
  GI50: 17.9 µM (inactive)
HOP-92
  GI50: 17.6 µM (inactive)
COLO 205
  GI50: 52.6 µM (inactive)
OVCAR-4
  GI50: 2.45 µM (inactive)
MDA-N
  GI50: 56.6 µM (inactive)

## COc1ccccc1-c1nc(O)c2ccccc2n1
Hs-578T
  GI50: > 100 µM (inactive)
CAKI-1
  GI50: > 100 µM (inactive)
SK-OV-3
  GI50: > 100 µM (inactive)
SNB-75
  GI50: > 100 µM (inactive)
SF-295
  GI50: > 100 µM (inactive)
EKVX
  GI50: 59.6 µM (inactive)
KM12
  GI50: > 100 µM (inactive)
HCT-15
  GI50: > 100 µM
IGROV-1
  GI50: > 100 µM (inactive)
OVCAR-3
  GI50: > 100 µM (inactive)
OVCAR-5
  GI50: > 100 µM (inactive)
MCF7
  GI50: > 100 µM (inactive)
OVCAR-8
  GI50: > 100 µM (inactive)
M14
  GI50: > 100 µM (inactive)
HCC 2998
  GI50: > 100 µM (inactive)
A549
  GI50: > 100 µM (inactive)
BT-549
  GI50: > 100 µM (inactive)
SF-268
  GI50: > 100 µM (inactive)
SR
  GI50: > 100 µM (inactive)
786-0
  GI50: > 100 µM (inactive)
Malme-3M
  GI50: > 100 µM (inactive)
SN12C
  GI50: 56 µM (inactive)
PC-3
  GI50: > 100 µM (inactive)
HCT-116
  GI50: > 100 µM (inactive)
MDA-MB-231
  GI50: > 100 µM (inactive)
CCRF-CEM
  GI50: > 100 µM (inactive)
DU-145
  GI50: > 100 µM (inactive)
UACC-257
  GI50: > 100 µM (inactive)
NCI-H460
  GI50: > 100 µM (inactive)
RPMI-8226
  GI50: > 100 µM (inactive)
UACC-62
  GI50: > 100 µM (inactive)
SK-MEL-5
  GI50: > 100 µM (inactive)
A498
  GI50: > 100 µM (inactive)
NCI-H23
  GI50: > 100 µM (inactive)
T47D
  GI50: 49.9 µM (inactive)
UO-31
  GI50: > 100 µM (inactive)
SNB-19
  GI50: > 100 µM (inactive)
RXF 393
  GI50: > 100 µM (inactive)
NCI/ADR-RES
  GI50: > 100 µM (inactive)
ACHN
  GI50: > 100 µM (inactive)
SK-MEL-2
  GI50: > 100 µM (inactive)
U-251
  GI50: > 100 µM (inactive)
HOP-62
  GI50: > 100 µM (inactive)
SW-620
  GI50: > 100 µM (inactive)
MOLT-4
  GI50: > 100 µM (inactive)
MDA-MB-435
  GI50: > 100 µM (inactive)
NCI-H226
  GI50: 68.1 µM (inactive)
COLO 205
  GI50: > 100 µM (inactive)
OVCAR-4
  GI50: > 100 µM (inactive)
MDA-N
  GI50: > 100 µM (inactive)
